Measured values from patent US5376679A, “Bicyclic or tricyclic biocidal compounds” (Shell Internationale Research Maatschappij B.V., priority 1988, dated 1994).
Converted amounts (≈) assume the structure as drawn.

Legend:
Plasmopara viticola = assay: Direct protectant activity against vine downy mildew (Pvp); format: in vivo; set-up: Pvp: direct protectant activity against vine downy mildew: scale not given here; conditions: foliar spray, 1 kg/ha; activity grade 1 or 2, not defined
From the text: (a) Direct Protectant Activity Against Vine Downy Mildew (Plasmopara viticola; Pvp)
The test is a direct protectant one, using a foliar spray. The lower surfaces of leaves of whole vine plants (cv Cabernet Sauvignon) are sprayed with a solution of active material in 1:1 v/v water/acetone containing 0.04% w "Triton X-155" (trade mark) (octylphenol polyoxyethylene surfactant), at a dosage of 1 kilogram of active material per hectare using a track sprayer which delivers 620 liters/ha, and after a subsequent 24 hours under normal glasshouse conditions the lower surfaces of the leaves are inoculated by spraying with an aqueous solution containing 10^4 zoosporangia/ml. The inoculated plants are kept for 24 hours in a high humidity compartment, 5 days under normal glasshouse conditions and then returned for a further 24 hours to high humidity. Assessment is based on the percentage of leaf area covered by sporulation compared with that on control leaves.

Botrytis cinerea = assay: Direct protectant activity against vine grey mould (Bcp); format: in vivo; conditions: foliar spray, 1 kg/ha; activity grade 1 or 2, not defined
From the text: (b) Direct Protectant Activity Against Vine Grey Mould (Botrytis cinerea; Bcp) The test is a direct protectant one using a foliar spray and is effected as described under (a), with the difference that the leaves are inoculated by spraying with an aqueous solution containing 10^5 conidia/ml.

[1] = system: Pseudocercosporella herpotrichoides; assay: In vitro activity against wheat eyespot (Ph); format: cell-based; set-up: Ph: activity against wheat eyespot: scale not given here; conditions: in vitro, 100 ppm in agar, 11 days; activity grade 1 or 2, not defined
Procedure: (c) Activity Against Wheat Eyespot (Pseudocercosporella herpotrichoides; Ph)
The test is an in vitro one. Samples are prepared wherein 0.7 mls solution containing 2 mg active material dissolved in acetone is evenly dispersed in 20 ml molten half-strength potato dextrose agar (formed by dissolving 2 g potato extract, 10 g dextrose and 7.5 g agar in 1 liter of water and sterilising for 15 minutes and 121° C.) and the resulting 20 ml portions are allowed to set in 9 cm petri dishes. The concentration of active material in the resulting samples is 100 ppm. Upon setting, two plugs of 5 mm diameter taken from the advancing edge of a stock plate of a 3 to 4 week old culture of P.herpotrichoides on full strength potato dextrose agar, incubated at 20°-22° C. in darkness, are placed, equally spaced on the surface of each sample, mycelial side uppermost. The samples are incubated for 11 days at 20°-22° C. in darkness before assessment. Diametric growth is measured with the width of the plug subtracted and results compared with growth on a sample wherein 0.7 ml acetone containing no active material is dispersed in 20 ml half-strength potato agar.

Fusarium culmorum = assay: Activity against seedling wheat blight, soil drench (Fs); format: in vivo; set-up: scale not given here; conditions: 10 kg/ha, 21 days, activity grade 1 or 2, not defined
Procedure: (d) Activity Against Seedling Wheat Blight (Fusarium culmorum; Fs)
The test is an anti-sporulant one using a soil drench. Surface sterilised wheat seeds (var Waggoner) are inoculated by soaking in an aqueous suspension containing 7×10^5 spores/ml (60 mg seed per 80 ml suspension) at 22° C. for 6 hours. The seeds are then sown in pots (5 per pot) in sand at a depth of 1 cm. 1 day after inoculation and planting the active material is applied at a rate of 10 kg/ha by pouring on a soil drench (concentration 0.36 g/l active material in 12% v/v acetone/water) evenly over the sand. The pots are then transferred to a glasshouse, kept at 25° C. and watered sparingly. 21 days after inoculation the resulting seedlings are removed from the pots and their roots are gently washed. Visual assessment is made based on lesion development on stem base and upper roots in comparison with control seedlings.

Leptosphaeria nodorum = assay: Direct antisporulant activity against wheat leafspot (Ln); format: in vivo; set-up: scale not given here; conditions: foliar spray, 1 kg/ha; activity grade 1 or 2, not defined
Procedure: (e) Activity Against Wheat Leafspot (Leptosphaeria nodorum; Ln) The test is a direct antisporulant one, using a foliar spray. Leaves of wheat plants ([…]), at the single leaf stage, are inoculated by spraying with an aqueous suspension containing 8×10^5 spores/mi. The inoculated plants are kept for 24 hours in a high humidity compartment prior to treatment. […] After drying, the plants are kept for 5 days under normal glasshouse conditions, followed by assessment. Assessment is based on the percentage of leaf area covered by sporulation compared with that on leaves of control plants.

Alternaria Solani = assay: Direct protectant activity against tomato early blight (As); format: in vivo; set-up: As: activity against tomato early blight: scale not given here; conditions: foliar spray as under (a), 8 days; activity grade 1 or 2, not defined; also: dose 1000 g/ha
Procedure: (g) Activity Against Tomato Early Blight (Alternaria Solani; As). The test is a direct protectant one using a foliar spray. The upper surfaces of leaves of young tomato plants are sprayed with a solution of active material as described in (a) above. After 24 hours under normal glasshouse conditions, the upper surfaces of the leaves are inoculated by spraying with an aqueous suspension containing 10^4 spores/ml. The inoculated plants are kept for 72 hours in a high humidity compartment and are then removed to lower humidity (50-70% relative humidity). Assessment is made 8 days after inoculation.

Puccinia Recondita = assay: Direct protectant activity against wheat brown rust (Pr); format: in vivo; set-up: scale not given here; conditions: foliar spray, 1 kg/ha, 10 days; activity grade 1 or 2, not defined
Procedure: (i) Activity Against Wheat Brown Rust (Puccinia Recondita; Pr) The test is a direct protectant one using a foliar spray. […] The plants are then sprayed with the test compound at a dosage of 1 kg/ha using a track sprayer as described under (a). Test compounds are applied as solutions or suspensions in a mixture of acetone and water (50:50 v/v) containing 0.04% surfactant ("TWEEN 20"--Trade Mark). 18-24 hours after treatment, the seedlings are inoculated by spraying the plants from all sides with an aqueous spore suspension containing about 10^5 spores/ml. For 18 hours after inoculation, the plants are kept in high humidity conditions at a temperature of 20°-22° C. Thereafter, the plants are kept in ambient glasshouse conditions, that is, in moderate relative humidity and at a temperature of 20° C. The disease is assessed 10 days after inoculation on the basis of the percentage of the plant covered by sporulating pustules compared with that on the control plants.

[2] = system: Erysiphe graminis f.sp. hordei; assay: Direct antisporulant activity against barley powdery mildew (Eg); format: in vivo; set-up: scale not given here; conditions: foliar spray, 1 kg/ha; activity grade 1 or 2, not defined
From the text: (f) Activity Against Barley Powdery Mildew (Erysiphe graminis f.sp. hordei; Eg) The test is a direct antisporulant one, using a foliar spray. Leaves of barley seedlings, cultivar Golden Promise, are inoculated by dusting with mildew conidia one day prior to treatment with the test compound. The inoculated plants are kept overnight at glasshouse ambient temperature and humidity prior to treatment. […] After drying, plants are returned to a compartment at ambient temperature and humidity for up to 7 days, followed by assessment. Assessment is based on the percentage of leaf area covered by sporulation compared with that on leaves of control plants.

Staphylococcus aureus = assay: Minimum inhibitory concentration, Staphylococcus aureus (Sa); format: cell-based, Staphylococcus aureus (NCIB 6571); conditions: 30° C., 24 and 72 hours
Procedure: (§1) In respect of S. aureus, B. subtilis and E. coli, the microorganisms were cultured in 50 ml aliquots of a tryptone soya broth in 250 ml conical flasks at 30° C. on a rotary shaker at 200 rpm for 24 hours. Tryptone soya broth was prepared by adding 17 g pancreatic digest of casein, 3 g […] digest of soyabean meal, 5 g of sodium chloride, 2.5 g of dipotassium hydrogen phosphate and 2.5 g of dextrose to 1 liter of distilled water, mixing and sterilising by autoclaving at 121° C. for 15 minutes. 1 ml aliquots of the resulting cultures were mixed with 99 ml of fresh tryptone soya broth and used as inocula for tests. […] Test procedures were as follows: (ii) Dilution Series for Other Test Bacteria, Yeast and Filamentous Fungi Dilution series from the stock solution of each compound were prepared in sterile distilled water. These contained 50, 100, 500 and 1000 ppm compound. To duplicate wells of a compartmentalised square petri dish 0.3 ml of each test compound concentration was added together with 2.7 ml of one of the microbial inocula described above. […] After incubation, in the dark, at 30° C. the wells were examined for the presence or absence of growth. Bacterial and yeast cultures were examined after 24 hours and 72 hours incubation and the fungi cultures after 3, 7 and 10 days. By means of the above tests minimum inhibitory concentrations were determined for the various test compounds.

Bacillus subtilis = assay: Minimum inhibitory concentration, Bacillus subtilis (Bs); format: cell-based; conditions: 30° C., 24 and 72 hours
Procedure: as §1

Escherichia coli = assay: Minimum inhibitory concentration, Escherichia coli (Ec); format: cell-based, Escherichia coli (NCIB 9517); conditions: 30° C., 24 and 72 hours
Procedure: as §1

Desulfovibrio sp. = assay: Minimum inhibitory concentration, sulphate-reducing bacteria (Dsp); format: cell-based; conditions: 30° C., 2, 5 and 10 days
Procedure: The sulphate reducing bacteria Desulfovibrio sp. were cultured in a modified Postgate's Medium B for 48 hours at 30° C. and used directly as an inoculum. The modified Postgate's Medium B consisted of 0.5 g dipotassium hydrogen phosphate, 1 g ammonium chloride, 1 g sodium sulphate, 5 g sodium lactate, 1 g yeast extract, 0.1 ml thioglycolic acid, 0.1 ml ascorbic acid, 0.5 g ferrous sulphate heptahydrate, 750 ml aged seawater and 250 ml distilled water, pH adjusted to 7.8, divided into aliquots and sterilised by autoclaving at 121° C. for 15 minutes. […] Test procedures were as follows: (i) Suphate-reducing Bacteria Test Dilution Series Duplicate aliquots (9.9 ml) of dilution series from the stock solutions of each compound were prepared in a modified Postgate's Medium B described above. These contained 100 ppm compound. These were then inoculated with 0.1 ml of inoculum. After incubation at 30° C., the presence or absence of growth--as indicated by a blackening of the medium due to ferrous sulphide production--was recorded at 2, 5 and 10 days. […] By means of the above tests minimum inhibitory concentrations were determined for the various test compounds.

Saccharomyces cerevisiae = assay: Minimum inhibitory concentration, yeast (Sc); format: cell-based, Saccharomyces cerevisiae (ATCC 9763); conditions: 30° C., 24 and 72 hours
Procedure: Inocula of S. cerevisiae were prepared as for S. aureus, B. subtilis and E. coli, but using yeast malt broth in place of the typtone soya broth. The yeast malt broth was prepared by suspending 3 g yeast extract, 3 g malt extract, 5 g peptone and 10 g dextrose in 1 liter of distilled water, warming to achieve solution and sterilising by autoclaving at 121° C. for 15 minutes.
(§2) Test procedures were as follows:
(§3) (ii) Dilution Series for Other Test Bacteria, Yeast and Filamentous Fungi
(§4) Dilution series from the stock solution of each compound were prepared in sterile distilled water. These contained 50, 100, 500 and 1000 ppm compound. To duplicate wells of a compartmentalised square petri dish 0.3 ml of each test compound concentration was added together with 2.7 ml of one of the microbial inocula described above. This gave final concentrations of the test compound of 5, 10, 50 and 100 ppm.
(§5) After incubation, in the dark, at 30° C. the wells were examined for the presence or absence of growth. Bacterial and yeast cultures were examined after 24 hours and 72 hours incubation and the fungi cultures after 3, 7 and 10 days.
(§6) By means of the above tests minimum inhibitory concentrations were determined for the various test compounds.

Aspergillus niger = assay: Minimum inhibitory concentration, Aspergillus niger (An); format: cell-based, Aspergillus niger (CMI 17454); conditions: 30° C., 3, 7 and 10 days
Procedure: (§7) Inocula of the fungi Aspergillus niger, Cladosporium resinae and Chaetomium globosum were prepared containing 5×10^5 conidia/ml in a potato dextrose broth. The potato dextrose broth was prepared by suspending 4 g potato extract and 20 g dextrose in 1 liter of distilled water, warming to achieve solution, separating into aliquots and sterilising by autoclaving at 121° C. for 15 minutes.
as §2, §3, §4, §5, §6

Cladosporium resinae = assay: Minimum inhibitory concentration, Cladosporium resinae (Cr); format: cell-based; conditions: Amorphotheca resinae, 30° C., 3, 7 and 10 days
Procedure: as §7, §2, §3, §4, §5, §6

Chaetomium globosum = assay: Minimum inhibitory concentration, Chaetomium globosum (Chg); format: cell-based; conditions: 30° C., 3, 7 and 10 days
Procedure: as §7, §2, §3, §4, §5, §6

Structure (SMILES)	Pvp: direct protectant activity against vine downy mildew (Plasmopara viticola)	Bcp: direct protectant activity against vine grey mould (Botrytis cinerea)	Ph: activity against wheat eyespot [1]	Fs: activity against seedling wheat blight (Fusarium culmorum)	Ln: activity against wheat leafspot (Leptosphaeria nodorum)	As: activity against tomato early blight (Alternaria Solani)	Pr: activity against wheat brown rust (Puccinia Recondita)	Eg: activity against barley powdery mildew [2]	MIC (Staphylococcus aureus) [µg/mL]	MIC (Bacillus subtilis) [µg/mL]	MIC (Escherichia coli) [µg/mL]	MIC (Desulfovibrio sp.) [µg/mL]	MIC (Saccharomyces cerevisiae) [µg/mL]	MIC (Aspergillus niger) [µg/mL]	MIC (Cladosporium resinae) [µg/mL]	MIC (Chaetomium globosum) [µg/mL]
CC1(C)Cc2cccc([N+]([O-])=NC#N)c2O1 [Example 2]	1	2	2	2												
Cc1ccc([N+]([O-])=NC#N)c2c1CC(C)(C)O2 [Example 3]	2	1	2	1	1	1										
Cc1cc2c(c([N+]([O-])=NC#N)c1)OC(C)(C)C2 [Example 7]	2		1	1	1		2									
CCc1cc2cccc([N+]([O-])=NC#N)c2o1 [Example 19]			1	1		2	2	1								
CCCCc1cc2cccc([N+]([O-])=NC#N)c2o1 [Example 20]				2	1		1		> 100	> 100	> 100	> 100	> 100	100 (≈ 411 µM)	100 (≈ 411 µM)	
N#CN=[N+]([O-])c1cccc2cc(-c3ccccc3)oc12 [Example 21]		1														
Cc1cc2c(F)ccc([N+]([O-])=NC#N)c2o1 [Example 22]		1	2	2				2	> 100	50 to 100 (≈ 228 to 456 µM)	> 100	50 (≈ 228 µM)	25 (≈ 114 µM)	10 (≈ 45.6 µM)	10 to 25 (≈ 45.6 to 114 µM)	5 (≈ 22.8 µM)
N#CN=[N+]([O-])c1ccc2oc3c(c2c1)CCCC3 [Example 24]	2		1	1		2	1									
COC(=O)N=[N+]([O-])c1cc(C)cc2c1OC(C)C2 (stereo not drawn) [Example 45]	1					1		2								
